Data reported in patent publication US20260116910A1, “POLYCYCLIC COMPOUNDS AND METHODS THEREOF” (HEPAITECH (BEIJING) BIOPHARMA TECHNOLOGY CO., LTD., priority 2021, published 2026).
Values joined by “and” are separate entries in the source; they are usually repeats but may differ in a detail not shown here. Equal entries are not always repeated. Where two headings read alike, the source gives them in different places.

Tests used:
human FXR (NR1H4) = biological target: T1, human FXR (NR1H4) (Homo sapiens, UniProt Q96RI1); assay: Human FXR (NR1H4) agonist assessment, FXRE-NanoLuc reporter in HEK293T cells; assay type: cell-based
T1 sequence (Q96RI1 1-476 isoform Q96RI1-1): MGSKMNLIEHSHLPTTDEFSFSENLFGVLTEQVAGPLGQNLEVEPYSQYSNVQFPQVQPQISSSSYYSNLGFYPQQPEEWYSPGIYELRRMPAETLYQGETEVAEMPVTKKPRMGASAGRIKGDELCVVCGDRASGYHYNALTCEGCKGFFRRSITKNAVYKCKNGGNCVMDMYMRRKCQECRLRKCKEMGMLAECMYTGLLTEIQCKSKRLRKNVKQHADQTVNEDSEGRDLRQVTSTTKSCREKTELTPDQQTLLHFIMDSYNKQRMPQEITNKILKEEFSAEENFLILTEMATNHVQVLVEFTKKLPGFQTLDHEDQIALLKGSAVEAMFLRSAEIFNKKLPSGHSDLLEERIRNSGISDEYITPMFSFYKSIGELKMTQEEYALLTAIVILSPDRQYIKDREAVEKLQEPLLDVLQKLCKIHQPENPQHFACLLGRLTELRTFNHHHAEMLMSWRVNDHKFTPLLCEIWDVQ
Method in brief: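 HEK293T cells stably expressing human FXR with an FXRE-NanoLuc reporter were treated with compounds for 24 hr at 37 °C, with 0.01% DMSO as negative control. Medium was read for luminescence after 5 min with coelenterazine. EC50 was fitted by sigmoid to concentration-response data.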

MRGPRX4 = MRGPRX4 (Homo sapiens, UniProt Q96LA9); assay: MRGPRX4 activation, Fluo-8 Ca2+ FLIPR assay in HEK293T cells stably expressing MRGPRX4; assay type: cell-based; design: key to MRGPRX4 activation, Average / MRGPRX4 activation, Ave.: fluorescence change dF/F0
Method in brief: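 Cells seeded overnight to >95% confluence, loaded 40-60 min at room temperature with 2 μM Fluo-8 AM, then kept in HHBS. Baseline read 30 s, compound added, signal followed 150 s more.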

[1] = FXR activation, HEK293T FXRE-NanoLuc reporter, 24 hr
[2] = FXR activation, HEK293T FXRE-NanoLuc reporter, 24 hr, read-out: EC50
[3] = MRGPRX4 activation, Ca2+ fluorescence, no activation in tested range reported as III, read-out: Activity (EC50 μM)

Chain of MRGPRX4 (Q96LA9 whole entry): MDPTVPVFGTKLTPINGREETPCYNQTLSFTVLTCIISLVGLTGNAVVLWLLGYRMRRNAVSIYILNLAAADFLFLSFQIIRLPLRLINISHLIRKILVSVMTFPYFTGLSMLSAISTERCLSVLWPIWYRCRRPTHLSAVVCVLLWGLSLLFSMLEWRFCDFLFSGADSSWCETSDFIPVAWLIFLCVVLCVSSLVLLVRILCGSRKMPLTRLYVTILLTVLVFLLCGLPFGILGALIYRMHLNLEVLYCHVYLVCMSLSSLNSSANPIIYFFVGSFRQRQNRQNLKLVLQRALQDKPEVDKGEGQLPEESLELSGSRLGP

Row | Compound | Efficacy (maximum measured induction of NanoLuc, normalized to CDCA set as 100%) (human FXR (NR1H4); [1]) | EC50 (human FXR (NR1H4); [2]) | MRGPRX4 activation, fluorescence change (dF/F0), Average (MRGPRX4; Conc. (Log[M]) −4) | MRGPRX4 activation, fluorescence change (dF/F0), Average (MRGPRX4; Conc. (Log[M]) −4.5) | MRGPRX4 activation, fluorescence change (dF/F0), Average (MRGPRX4; Conc. (Log[M]) −5) | MRGPRX4 activation, fluorescence change (dF/F0), Average (MRGPRX4; Conc. (Log[M]) −5.5) | MRGPRX4 activation, fluorescence change (dF/F0), Average (MRGPRX4; Conc. (Log[M]) −6) | MRGPRX4 activation, fluorescence change (dF/F0), Average (MRGPRX4; Conc. (Log[M]) −7) | MRGPRX4 activation, fluorescence change (dF/F0), Average (MRGPRX4; Conc. (Log[M]) −8) | MRGPRX4 activation, fluorescence change (dF/F0), Average (MRGPRX4; Conc. (Log[M]) −9) | EC50 (MRGPRX4; [3]) | further results
1 | CC[C@H]1[C@@H](O)[C@@H]2[C@H](CC[C@]3(C)[C@@H]([C@H](C)CCC(=O)NS(=O)(=O)CC)CC[C@@H]23)[C@@]2(C)CCCC[C@@H]12 [4-2] | B (300%<efficacy <=400%) | < 1 µM | 0.113 | −0.013 | −0.006 | 0.015 | −0.006 | 0.009 | 0.009 | 0.002 | > 100 µM | –
2 | C[C@H](CCC(=O)O)[C@H]1CC[C@H]2[C@@H]3CC[C@@H]4C[C@@H](O)CC[C@]4(C)[C@H]3C[C@@H](O)[C@]12C [RC-6] | B (300%<efficacy <=400%) | 1 to 10 µM | 0.259 | 0.208 | 0.145 | 0.009 | −0.013 | −0.007 | −0.015 | −0.008 | – | –
3 | CC[C@H]1[C@@H](O)[C@@H]2[C@H](CC[C@]3(C)[C@@H]([C@H](C)CCC(=O)O)CC[C@@H]23)[C@@]2(C)CCC(F)(F)C[C@@H]12 [compound 55] | C (100%<efficacy <=300%) | < 1 µM | – | – | – | – | – | – | – | – | > 100 µM | MRGPRX4 activation, Average (MRGPRX4; E3-9, Conc. (Log[M]) −4.0): 0.006; MRGPRX4 activation, Average (MRGPRX4; E3-9, Conc. (Log[M]) −4.5): 0.004; MRGPRX4 activation, Average (MRGPRX4; E3-9, Conc. (Log[M]) −5.0): 0.018; MRGPRX4 activation, Average (MRGPRX4; E3-9, Conc. (Log[M]) −5.4): 0.023; MRGPRX4 activation, Average (MRGPRX4; E3-9, Conc. (Log[M]) −5.9): 0.019; MRGPRX4 activation, Average (MRGPRX4; E3-9, Conc. (Log[M]) −6.4): 0.019; MRGPRX4 activation, Average (MRGPRX4; E3-9, Conc. (Log[M]) −6.9): 0.016; MRGPRX4 activation, Average (MRGPRX4; E3-9, Conc. (Log[M]) −7.3): 0.019; MRGPRX4 activation, Average (MRGPRX4; E3-9, Conc. (Log[M]) −7.8): 0.016; MRGPRX4 activation, Average (MRGPRX4; E3-9, Conc. (Log[M]) −8.3): 0.018
4 | CC[C@H]1[C@@H](O)[C@@H]2[C@H](CC[C@]3(C)[C@@H]([C@H](C)CNC(=O)NS(=O)(=O)c4ccc(N5CCCCC5)nc4)CC[C@@H]23)[C@@]2(C)CCCC[C@@H]12 [20-3] | B (300%<efficacy <=400%) | 1 to 10 µM | – | – | – | – | – | – | – | – | > 100 µM | Activation (%) (MRGPRX4; second E3-8-1, 4.6 nM, n = 1): 3.48%; Activation (%) (MRGPRX4; second E3-8-1, 4.6 nM, n = 2): 2.86%; Activation (%) (MRGPRX4; second E3-8-1, 14 nM, n = 1): 3.48%; Activation (%) (MRGPRX4; second E3-8-1, 14 nM, n = 2): 3.79%; Activation (%) (MRGPRX4; second E3-8-1, 41 nM, n = 1): 3.48%; Activation (%) (MRGPRX4; second E3-8-1, 41 nM, n = 2): 3.48%; Activation (%) (MRGPRX4; second E3-8-1, 123 nM, n = 1): 3.17%; Activation (%) (MRGPRX4; second E3-8-1, 123 nM, n = 2): 3.79%; Activation (%) (MRGPRX4; second E3-8-1, 370 nM, n = 1): 3.17%; Activation (%) (MRGPRX4; second E3-8-1, 370 nM, n = 2): 3.17%; Activation (%) (MRGPRX4; second E3-8-1, 1111 nM, n = 1): 3.79%; Activation (%) (MRGPRX4; second E3-8-1, 1111 nM, n = 2): 3.48%; Activation (%) (MRGPRX4; second E3-8-1, 3333 nM, n = 1): 2.55%; Activation (%) (MRGPRX4; second E3-8-1, 3333 nM, n = 2): 3.17%; Activation (%) (MRGPRX4; second E3-8-1, 10000 nM, n = 1): 2.55%; Activation (%) (MRGPRX4; second E3-8-1, 10000 nM, n = 2): 3.17%; Activation (%) (MRGPRX4; second E3-8-1, 30000 nM, n = 1): 1.63%; Activation (%) (MRGPRX4; second E3-8-1, 30000 nM, n = 2): 2.24%
5 | C[C@H](CCC(=O)O)[C@H]1CC[C@H]2[C@@H]3CC[C@@H]4CC(=O)CC[C@]4(C)[C@H]3CC[C@]12C [compound 16] | C (100%<efficacy <=300%) | – | 0.416 | 0.322 | 0.130 | −0.020 | −0.010 | 0.013 | 0.012 | −0.005 | – | EC50 (human FXR (NR1H4)): > 10 µM; EC50 (MRGPRX4): < 50 µM
6 | [2H]C1([2H])CC[C@@]2(C)[C@@H](C1)[C@@H](CC)[C@@H](O)[C@@H]1[C@@H]2CC[C@]2(C)[C@@H]([C@H](C)CCNC(=S)NS(=O)(=O)c3cccs3)CC[C@@H]12 [14-4] | – | < 1 µM | – | – | – | – | – | – | – | – | > 100 µM | Efficacy (maximum measured induction of NanoLuc, normalized to CDCA set as 100%) (human FXR (NR1H4)): C (key: A: efficacy >400%; B: 300%<efficacy <=400%; C: 100%<efficacy <=300%; D: efficacy <=100%); MRGPRX4 activation, Average (MRGPRX4; E3-9, Conc. (Log[M]) −4.0): 0.061; MRGPRX4 activation, Average (MRGPRX4; E3-9, Conc. (Log[M]) −4.5): 0.020; MRGPRX4 activation, Average (MRGPRX4; E3-9, Conc. (Log[M]) −5.0): 0.013; MRGPRX4 activation, Average (MRGPRX4; E3-9, Conc. (Log[M]) −5.4): 0.018; MRGPRX4 activation, Average (MRGPRX4; E3-9, Conc. (Log[M]) −5.9): 0.013; MRGPRX4 activation, Average (MRGPRX4; E3-9, Conc. (Log[M]) −6.4): 0.020; MRGPRX4 activation, Average (MRGPRX4; E3-9, Conc. (Log[M]) −6.9): 0.015; MRGPRX4 activation, Average (MRGPRX4; E3-9, Conc. (Log[M]) −7.3): 0.015; MRGPRX4 activation, Average (MRGPRX4; E3-9, Conc. (Log[M]) −7.8): 0.008; MRGPRX4 activation, Average (MRGPRX4; E3-9, Conc. (Log[M]) −8.3): 0.015
7 | CC[C@H]1[C@@H](O)[C@@H]2[C@H](CC[C@]3(C)[C@@H]([C@H](C)CCNC(=O)NS(=O)(=O)c4ccc5c(c4)CCN5C(C)=O)CC[C@@H]23)[C@@]2(C)CCCC[C@@H]12 [5-4] | B (300%<efficacy <=400%) | < 1 µM | 0.097 | 0.017 | 0.020 | 0.020 | 0.013 | 0.017 | – | – | > 100 µM | –
8 | CO/N=C1\C[C@@H]2C[C@H](OC(C)=O)CC[C@]2(C)[C@H]2CC[C@]3(C)[C@@H]([C@H](C)CCC(=O)OC)CC[C@H]3[C@H]12 [1-2] | D (efficacy <=100%) | > 10 µM | – | – | 0.027 and 0.022 | – | – | – | – | – | 50 to 100 µM | –
9 | CC[C@H]1[C@@H](O)[C@@H]2[C@H](CC[C@]3(C)[C@@H]([C@H](C)CCCOS(=O)(=O)O)CC[C@@H]23)[C@@]2(C)CCCC[C@@H]12 [2-6] | B (300%<efficacy <=400%) | 1 to 10 µM | – | – | −0.047 | – | – | – | – | – | 50 to 100 µM | –
10 | C[C@H](CCC(=O)O)[C@H]1CC[C@H]2[C@@H]3CC[C@@H]4C[C@@H](O)CC[C@]4(C)[C@H]3C[C@H](O)[C@]12C [RC-5] | B (300%<efficacy <=400%) | 1 to 10 µM | 0.300 | 0.228 | 0.166 | 0.030 | −0.009 | −0.017 | −0.021 | −0.007 | – | –
11 | CC[C@H]1[C@@H](O)[C@@H]2[C@H](CC[C@]3(C)[C@@H]([C@H](C)CCNC(=O)NS(=O)(=O)c4cc(F)cc(F)c4)CC[C@@H]23)[C@@]2(C)CCC(F)(F)C[C@@H]12 [10-3] | C (100%<efficacy <=300%) | < 1 µM | – | – | – | – | – | – | – | – | > 100 µM | MRGPRX4 activation, Average (MRGPRX4; E3-9, Conc. (Log[M]) −4.0): 0.010; MRGPRX4 activation, Average (MRGPRX4; E3-9, Conc. (Log[M]) −4.5): 0.004; MRGPRX4 activation, Average (MRGPRX4; E3-9, Conc. (Log[M]) −5.0): 0.014; MRGPRX4 activation, Average (MRGPRX4; E3-9, Conc. (Log[M]) −5.4): 0.016; MRGPRX4 activation, Average (MRGPRX4; E3-9, Conc. (Log[M]) −5.9): 0.023; MRGPRX4 activation, Average (MRGPRX4; E3-9, Conc. (Log[M]) −6.4): 0.018; MRGPRX4 activation, Average (MRGPRX4; E3-9, Conc. (Log[M]) −6.9): 0.023; MRGPRX4 activation, Average (MRGPRX4; E3-9, Conc. (Log[M]) −7.3): 0.021; MRGPRX4 activation, Average (MRGPRX4; E3-9, Conc. (Log[M]) −7.8): 0.012; MRGPRX4 activation, Average (MRGPRX4; E3-9, Conc. (Log[M]) −8.3): 0.018
